Assay [1] concerns the target T1, human ALK5 (Homo sapiens, UniProt P36897).
T1 sequence (P36897 162-503): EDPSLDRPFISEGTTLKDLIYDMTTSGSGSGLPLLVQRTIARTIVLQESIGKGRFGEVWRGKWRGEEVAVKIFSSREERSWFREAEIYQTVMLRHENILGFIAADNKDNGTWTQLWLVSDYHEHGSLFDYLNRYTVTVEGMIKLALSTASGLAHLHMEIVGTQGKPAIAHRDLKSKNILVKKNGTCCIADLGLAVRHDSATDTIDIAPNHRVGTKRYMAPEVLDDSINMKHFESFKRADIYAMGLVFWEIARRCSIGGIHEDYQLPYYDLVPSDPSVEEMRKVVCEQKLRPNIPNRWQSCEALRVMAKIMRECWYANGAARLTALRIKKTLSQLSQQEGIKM
Description: ALK5 Enzyme Assay 2 (fluorescence polarisation probe displacement). Details: 6His tagged human ALK5 (residues162-503) was grown and purified from insect cells; 6His; made in house; host or cells: insect cells. It counts as binding. Summed up:
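Recombinant ALK5 (3 μg/mL) incubated with test compound in 50 mM HEPES pH7.4, 10 mM MgCl2, 1 mM DTT, 0.01% CHAPS. Displacement of a fluorescent quinazoline-based ALK5 probe (50 nM final) in presence of 1 μM ATP read by fluorescence polarisation.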

The target of assay [2] is T1, human ALK5. In words: ALK5 Enzyme Assay 1. It counts as biochemical. More on the design: 6His tagged ALK5 protein (amino acids 162-503) expressed in insect cells; 6His; made in house; host or cells: insect cells. The procedure:
This assay measures the ability of a compound to bind to and inhibit the activity of ALK5 protein in vitro. […] Assay measurements were performed in assay buffer comprising 60 mM HEPES pH 7.4, 3 mM MgCl2, 3 mM MnCl2, 3 μM Na orthovanadate, 1.2 mM DTT and 0.05% PEG2000. […] Reactions were performed in the presence of 200 μg/mL casein (Sigma-Aldrich C4765-10ML), 200 ng/mL ALK5, 0.5 μM ATP (Sigma-Aldrich A7699), 1 μCi/mL γ-33P ATP. Following addition of casein, ATP and compound, reactions were initiated by adding ALK5 enzyme and reactions run for 90 minutes. After incubation reactions were terminated by addition of 20 μL per well of 50% orthophosphoric acid. 20 minutes after addition of 70% v/v TCA, precipitated protein was transferred to GF/C 96 well plates using a Tomtec harvester with 1.5% orthophosphoric acid. […] All reactions were performed under linear kinetics.

Where [3] appears, read: read-out: EAA2: activity (μM) using Enzyme Assay 2.
Where [4] appears, read: read-out: EAA: activity (μM) using Enzyme Assay 1.

The values that follow come from patent US20090048269A1 (AstraZeneca AB, priority 2007, published 2009).

Regarding `COc1cc(Nc2cc(Oc3cccnc3-c3ccc(NC(C)=O)cc3)ccn2)cc(OC)c1OC` [Example 51, N-[4-(3-{2-[(3,4,5-Trimethoxyphenyl)amino]pyridin-4-yl}-oxypyridin-2-yl)phenyl]acetamide], the values for the IC50 in assay [1] (setting [3]) and in assay [2] (setting [4]) were 0.0274 µM and 0.23 µM, respectively.
Turning to `Cc1cc(Oc2ccnc(Nc3ccc(S(N)(=O)=O)cc3)c2)c(-c2ccccn2)nc1C` [Example 26, 4-{[4-(5,6-Dimethyl-2-pyridin-2-yl-pyridin-3-yl)oxypyridin-2-yl]-amino}benzenesulfonamide], the values for the IC50 in assay [1] (setting [3]) and in assay [2] (setting [4]) were 0.0124 µM and 0.0219 µM, respectively.
For `COc1cc(Nc2cc(Oc3ccc(C)nc3C)ccn2)cc(OC)c1OC` [Example 7, 4-(2,6-Dimethylpyridin-3-yl)oxy-N-(3,4,5-trimethoxyphenyl)-pyridin-2-amine], the IC50 in assay [1] worked out at 0.0349 µM; in assay [2] (EAA: activity (μM) using Enzyme Assay 1), 0.0206 µM.
`Cc1ccc(Oc2ccnc(Nc3ccc(S(N)(=O)=O)cc3)c2)c(-c2ccccn2)n1` [Example 43, 4-{[4-(6-Methyl-2-pyridin-2-yl-pyridin-3-yl)oxypyridin-2-yl]-amino}benzene-sulfonamide]: the IC50 in assay [1] (setting [3]) stood at 0.00728 µM; in assay [2] (setting [4]), 0.0162 µM.
Taken in the same sequence, the figures for `Cc1cc(Oc2ccnc(Nc3ccc(C#N)cc3)c2)c(-c2ccccn2)nc1C` [Example 34, 4-{[4-(5,6-Dimethyl-2-pyridin-2-yl-pyridin-3-yl)-oxypyridin-2-yl]amino}benzonitrile] were 0.0255 µM and 0.0215 µM.
Consider `COc1cc(Nc2cc(Oc3cc(C)c(C)nc3-c3nc(C)c(C)s3)ccn2)cc(OC)c1OC` [Example 4, {4-[2-(4,5-Dimethyl-thiazol-2-yl)-5,6-dimethyl-pyridin-3-yloxy]-pyridin-2-yl}-(3,4,5-trimethoxy-phenyl)-amine], for which the results for the IC50 in assay [1] (setting [3]) and in assay [2] (setting [4]) were 0.056 µM and 0.00951 µM, respectively.
Take `Cc1cc(Oc2ccnc(Nc3ccc4[nH]ccc4c3)c2)c(-c2ccccn2)nc1C` [Example 35, N-[4-(5,6-Dimethyl-2-pyridin-2-yl-pyridin-3-yl)-oxypyridin-2-yl]-1H-indol-5-amine]: the IC50 in assay [1] (setting [3]) amounted to 0.463 µM; in assay [2] (setting [4]), 0.205 µM.
As for `COc1cccc(-c2nc(C)ccc2Oc2ccnc(Nc3cc(OC)c(OC)c(OC)c3)c2)c1` [Example 58, 4-[2-(3-Methoxy-phenyl)-6-methyl-pyridin-3-yl]oxy-N-(3,4,5-trimethoxy-phenyl)pyridin-2-amine], the IC50 in assay [1] (setting [3]) was 0.135 µM; in assay [2] (setting [4]), 0.0187 µM.
Taken in the same sequence, the figures for `Cc1cc(Oc2ccnc(Nc3cc(F)ccc3F)c2)c(-c2ccccn2)nc1C` [Example 31, N-(2,5-Difluorophenyl)-4-(5,6-dimethyl-2-pyridin-2-yl-pyridin-3-yl)-oxy-pyridin-2-amine] were 0.0312 µM and 0.0274 µM.
The like results for `COc1cc(Nc2cc(Oc3cccnc3)ccn2)cc(OC)c1OC` [Example 6, 4-Pyridin-3-yloxy-N-(3,4,5-trimethoxyphenyl)pyridin-2-amine] were, in that order, 1.97 µM and 5.5 µM.
Regarding `Cc1cc(Oc2ccnc(Nc3ccc(N4CCN(C)CC4)cc3)c2)c(-c2ccccn2)nc1C` [Example 20, 4-(5,6-Dimethyl-2-pyridin-2-yl-pyridin-3-yl)oxy-N-[4-(4-methyl-piperazin-1-yl)phenyl]pyridin-2-amine], the values for the IC50 in assay [1] (setting [3]) and in assay [2] (setting [4]) were 0.0166 µM and 0.0104 µM, respectively.
With `COc1cc(Nc2cc(Oc3cccnc3-c3ccccc3C#N)ccn2)cc(OC)c1OC` [Example 50, 2-(3-{2-[(3,4,5-Trimethoxyphenyl)amino]pyridin-4-yl}-oxypyridin-2-yl)benzonitrile], the IC50 stood at 0.0308 µM in assay [1] (setting [3]) and 0.126 µM in assay [2] (setting [4]).
As to `Cc1cc(Oc2ccnc(Nc3ccc(F)cc3F)c2)c(-c2ccccn2)nc1C` [Example 37, N-(2,4-Difluorophenyl)-4-(5,6-dimethyl-2-pyridin-2-yl-pyridin-3-yl)oxy-pyridin-2-amine], the IC50 in assay [1] (setting [3]) was 0.0216 µM; in assay [2] (setting [4]) it was 0.036 µM.
Take `CCn1nccc1Nc1cc(Oc2cc(C)c(C)nc2-c2ccccn2)ccn1` [Example 32, 4-(5,6-Dimethyl-2-pyridin-2-yl-pyridin-3-yl)oxy-N-(2-ethylpyrazol-3-yl)-pyridin-2-amine]: the IC50 was 0.0339 µM in assay [1] (setting [3]) and 0.0425 µM in assay [2] (setting [4]).
As to `CCc1ccc(Oc2ccnc(Nc3ccc(S(N)(=O)=O)cc3)c2)c(-c2ccccn2)n1` [Example 44, 4-{[4-(6-Ethyl-2-pyridin-2-yl-pyridin-3-yl)oxypyridin-2-yl]-amino}benzene-sulfonamide], the results for the IC50 in assay [1] (setting [3]) and in assay [2] (setting [4]) were 0.0165 µM and 0.0161 µM, respectively.
Taken in the same sequence, the figures for `COc1cc(Nc2cc(Oc3ccc(C)nc3-c3ccccc3)ccn2)cc(OC)c1OC` [Example 45, 4-(6-Methyl-2-phenyl-pyridin-3-yl)oxy-N-(3,4,5-trimethoxy-phenyl)pyridin-2-amine] were 0.00799 µM and 0.00537 µM.
`CC(=O)Nc1cc(Nc2cc(Oc3cc(C)c(C)nc3-c3ccccn3)ccn2)ccc1C` [Example 16, N-(5-{[4-(5,6-Dimethyl-2-pyridin-2-yl-pyridin-3-yl)oxypyridin-2-yl]amino}-2-methyl-phenyl)acetamide]: the IC50 turned out to be 0.00602 µM in assay [1] (setting [3]) and 0.0128 µM in assay [2] (setting [4]).
Take `Cc1cc(Oc2ccnc(Nc3cccc(F)c3)c2)c(-c2ccccn2)nc1C` [Example 29, N-(3-Fluorophenyl)-4-(5,6-dimethyl-2-pyridin-2-yl-pyridin-3-yl)-oxy-pyridin-2-amine]: the values for the IC50 in assay [1] (setting [3]) and in assay [2] (setting [4]) were 0.0184 µM and 0.0166 µM, respectively.
The like results for `COc1cc(Nc2cc(Oc3cccnc3-c3ccc(F)cc3)ccn2)cc(OC)c1OC` [Example 52, 4-[2-(4-Fluorophenyl)pyridin-3-yl]oxy-N-(3,4,5-trimethoxy-phenyl)pyridin-2-amine] were, in that order, 0.0329 µM and 0.0156 µM.
Taken in the same sequence, the figures for `Cc1cc(Oc2ccnc(Nc3ccc(Cl)cc3)c2)c(-c2ccccn2)nc1C` [Example 30, N-(4-Chlorophenyl)-4-(5,6-dimethyl-2-pyridin-2-yl-pyridin-3-yl)oxy-pyridin-2-amine] were 0.894 µM and 1.67 µM.
In the case of `Cc1cc(Oc2ccnc(Nc3ccc(C(=O)N(C)C)cc3)c2)c(-c2ccccn2)nc1C` [Example 27, 4-{[4-(5,6-Dimethyl-2-pyridin-2-yl-pyridin-3-yl)oxypyridin-2-yl]-amino}-N,N-dimethyl-benzamide], the results for the IC50 in assay [1] (setting [3]) and in assay [2] (setting [4]) were 0.0124 µM and 0.00706 µM, respectively.
Regarding `COc1cc(Nc2cc(Oc3cc(C)c(C)nc3-c3cccc(C)n3)ccn2)cc(OC)c1OC` [Example 2, 4-[5,6-Dimethyl-2-(6-methylpyridin-2-yl)pyridin-3-yl]oxy-N-(3,4,5-trimethoxy-phenyl)pyridin-2-amine], the IC50 in assay [1] (setting [3]) turned out to be 0.0723 µM; in assay [2] (setting [4]), 0.0337 µM.
As to `Cc1cc(Oc2ccnc(Nc3ccncc3)c2)c(-c2ccccn2)nc1C` [Example 36, 4-(5,6-Dimethyl-2-pyridin-2-yl-pyridin-3-yl)oxy-N-pyridin-4-yl-pyridin-2-amine], the IC50 in assay [1] (setting [3]) was found to be 0.0515 µM; in assay [2] (setting [4]), 0.0632 µM.
On to `COc1cc(Nc2cc(Oc3cccnc3-c3cccc(C)n3)ccn2)cc(OC)c1OC` [Example 1, 4-[2-(6-Methylpyridin-2-yl)pyridin-3-yl]oxy-N-(3,4,5-trimethoxy-phenyl)pyridin-2-amine], for which the IC50 in assay [1] (setting [3]) was found to be 0.089 µM; in assay [2] (setting [4]), 0.0783 µM.
Take `COc1cc(Nc2cc(Oc3ccc(C)nc3-c3cnn(C)c3)ccn2)cc(OC)c1OC` [Example 5, 4-[6-Methyl-2-(1-methylpyrazol-4-yl)pyridin-3-yl]oxy-N-(3,4,5-trimethoxy-phenyl)pyridin-2-amine]: the IC50 is 0.0169 µM in assay [1] (setting [3]) and 0.0153 µM in assay [2] (setting [4]).
In the case of `Cc1cc(Oc2ccnc(Nc3cccc(Cl)c3)c2)c(-c2ccccn2)nc1C` [Example 12, N-(3-Chlorophenyl)-4-(5,6-dimethyl-2-pyridin-2-yl-pyridin-3-yl)-oxy-pyridin-2-amine], the IC50 was 0.0418 µM in assay [1] (setting [3]) and 0.0073 µM in assay [2] (setting [4]).
`Cc1cc(Oc2ccnc(Nc3ccc(F)cc3)c2)c(-c2ccccn2)nc1C` [Example 10, 4-(5,6-Dimethyl-2-pyridin-2-yl-pyridin-3-yl)oxy-N-(4-fluorophenyl)pyridin-2-amine]: the figures for the IC50 in assay [1] (setting [3]) and in assay [2] (setting [4]) were 0.0883 µM and 0.017 µM, respectively.
